Measured values as given in the NIST ThermoML archive (doi:10.1016/j.jct.2015.08.040).
± gives the expanded uncertainty stated by the source.

Assay: xn = mol fraction of the nth substance listed
Conditions: 100 kPa, Liquid; for speed of sound: Frequency=2 MHz, Linear variable-path acoustic interferometer; for mass density: Vibrating tube method

OCc1ccccc1 [benzenemethanol] + COCCO
Conditions	mass density, 298.15 K [kg/m3]	mass density, 303.15 K [kg/m3]	mass density, 308.15 K [kg/m3]	mass density, 313.15 K [kg/m3]	mass density, 318.15 K [kg/m3]	speed of sound, 298.15 K [m/s]	speed of sound, 308.15 K [m/s]
x1 = 0.0979	974.27 ± 4	969.06 ± 4	963.98 ± 4	958.77 ± 4	953.4 ± 4	1359 ± 8	1319 ± 8
x1 = 0.1928	985.51 ± 4	980.26 ± 4	975.04 ± 4	969.7 ± 4	964.14 ± 4	1377 ± 8	1337 ± 8
x1 = 0.2847	995 ± 4	989.74 ± 4	984.55 ± 4	979.32 ± 4	973.82 ± 4	1395 ± 9	1354 ± 8
x1 = 0.3739	1003.23 ± 4	998.13 ± 4	992.96 ± 4	987.81 ± 4	982.44 ± 4	1413 ± 9	1371 ± 8
x1 = 0.4604	1010.46 ± 4	1005.46 ± 4	1000.42 ± 4	995.25 ± 4	990.02 ± 4	1430 ± 9	1388 ± 8
x1 = 0.5443	1016.87 ± 4	1011.91 ± 4	1006.93 ± 4	1001.91 ± 4	996.67 ± 4	1447 ± 9	1405 ± 9
x1 = 0.6258	1022.61 ± 4	1017.7 ± 4	1012.79 ± 4	1007.81 ± 4	1002.65 ± 4	1463 ± 9	1421 ± 9
x1 = 0.7049	1027.69 ± 4	1022.84 ± 4	1018.04 ± 4	1013.09 ± 4	1007.91 ± 4	1478 ± 9	1437 ± 9
x1 = 0.7818	1032.17 ± 4	1027.39 ± 4	1022.66 ± 4	1017.74 ± 4	1012.63 ± 4	1493 ± 9	1452 ± 9
x1 = 0.8565	1035.9 ± 4	1031.28 ± 4	1026.79 ± 4	1022.07 ± 4	1017.05 ± 4	1507 ± 9	1467 ± 9
x1 = 0.9292	1038.94 ± 4	1034.49 ± 4	1030.32 ± 4	1025.92 ± 4	1021.35 ± 4	1521 ± 9	1482 ± 9
x1 = 1	1041.05 ± 4	1037.15 ± 4	1033.32 ± 4	1029.46 ± 4	1025.59 ± 4	1534.5 ± 9.3	1496 ± 9.1

CCCCOCCO [2-butoxyethan-1-ol] + OCc1ccccc1
Conditions	mass density, 298.15 K [kg/m3]	mass density, 303.15 K [kg/m3]	mass density, 308.15 K [kg/m3]	mass density, 313.15 K [kg/m3]	mass density, 318.15 K [kg/m3]	speed of sound, 298.15 K [m/s]	speed of sound, 308.15 K [m/s]
x2 = 0	896.46 ± 4	892.22 ± 4	887.97 ± 4	883.7 ± 4	879.42 ± 4	1305 ± 8	1275 ± 7.8
x2 = 0.1042	909.14 ± 4	904.89 ± 4	900.6 ± 4	896.2 ± 4	891.93 ± 4	1329 ± 8	1296 ± 8
x2 = 0.2038	921.94 ± 4	917.61 ± 4	913.28 ± 4	908.82 ± 4	904.49 ± 4	1352 ± 8	1317 ± 8
x2 = 0.299	934.77 ± 4	930.34 ± 4	925.95 ± 4	921.47 ± 4	917.11 ± 4	1373 ± 8	1337 ± 8
x2 = 0.3902	947.51 ± 4	942.98 ± 4	938.56 ± 4	934.1 ± 4	929.63 ± 4	1394 ± 9	1356 ± 8
x2 = 0.4776	960.11 ± 4	955.52 ± 4	951.03 ± 4	946.55 ± 4	942.13 ± 4	1413 ± 9	1375 ± 8
x2 = 0.5614	972.47 ± 4	967.75 ± 4	963.31 ± 4	958.86 ± 4	954.41 ± 4	1433 ± 9	1394 ± 9
x2 = 0.6418	984.52 ± 4	979.84 ± 4	975.34 ± 4	970.91 ± 4	966.56 ± 4	1452 ± 9	1412 ± 9
x2 = 0.7191	996.35 ± 4	991.7 ± 4	987.22 ± 4	982.84 ± 4	978.55 ± 4	1470 ± 9	1430 ± 9
x2 = 0.7933	1007.85 ± 4	1003.3 ± 4	998.89 ± 4	994.59 ± 4	990.4 ± 4	1486 ± 9	1446 ± 9
x2 = 0.8648	1019.13 ± 4	1014.73 ± 4	1010.48 ± 4	1006.26 ± 4	1002.24 ± 4	1503 ± 9	1463 ± 9
x2 = 0.9336	1030.15 ± 4	1025.98 ± 4	1021.88 ± 4	1017.81 ± 4	1013.89 ± 4	1519 ± 9	1479 ± 9

CCOCCO [2-ethoxyethan-1-ol] + OCc1ccccc1
Conditions	mass density, 298.15 K [kg/m3]	mass density, 303.15 K [kg/m3]	mass density, 308.15 K [kg/m3]	mass density, 313.15 K [kg/m3]	mass density, 318.15 K [kg/m3]	speed of sound, 298.15 K [m/s]	speed of sound, 308.15 K [m/s]
x2 = 0	925.36 ± 4	920.72 ± 4	916.11 ± 4	911.47 ± 4	906.9 ± 4	1301.4 ± 8	1274.8 ± 7.9
x2 = 0.0793	936.7 ± 4	931.63 ± 4	926.88 ± 4	922.19 ± 4	917.52 ± 4	1320 ± 8	1291 ± 8
x2 = 0.1593	947.73 ± 4	942.59 ± 4	937.61 ± 4	932.97 ± 4	928.22 ± 4	1339 ± 8	1308 ± 8
x2 = 0.2401	958.4 ± 4	953.27 ± 4	948.33 ± 4	943.6 ± 4	938.75 ± 4	1358 ± 8	1325 ± 8
x2 = 0.3215	968.73 ± 4	963.72 ± 4	958.87 ± 4	954.15 ± 4	949.14 ± 4	1378 ± 8	1342 ± 8
x2 = 0.4037	978.84 ± 4	973.92 ± 4	969.17 ± 4	964.42 ± 4	959.34 ± 4	1399 ± 9	1360 ± 8
x2 = 0.4866	988.63 ± 4	983.76 ± 4	979.06 ± 4	974.35 ± 4	969.28 ± 4	1419 ± 9	1379 ± 8
x2 = 0.5703	998.17 ± 4	993.33 ± 4	988.65 ± 4	984.06 ± 4	979.07 ± 4	1440 ± 9	1398 ± 9
x2 = 0.6547	1007.45 ± 4	1002.6 ± 4	997.97 ± 4	993.39 ± 4	988.67 ± 4	1460 ± 9	1417 ± 9
x2 = 0.7398	1016.35 ± 4	1011.53 ± 4	1006.89 ± 4	1002.53 ± 4	998.04 ± 4	1480 ± 9	1437 ± 9
x2 = 0.8257	1024.9 ± 4	1020.21 ± 4	1015.71 ± 4	1011.52 ± 4	1007.24 ± 4	1499 ± 9	1456 ± 9
x2 = 0.9125	1033.23 ± 4	1028.71 ± 4	1024.47 ± 4	1020.44 ± 4	1016.45 ± 4	1517 ± 9	1476 ± 9
